In PubChem BioAssay AID216 (DTP/NCI, 2004):
“And” between values parts separate entries of the source, which are not always exact repeats. Equal values may be shown once. Toxic doses and inconclusive results are not listed.

Tested on: BDF1 mice, P288 leukemia ip, survival T/C
Test: NCI In Vivo Anticancer Drug Screen. Data for tumor model P288 Lymphocytic Leukemia (intraperitoneal) in B6D2F1 (BDF1) mice
Settings: endpoint: survival time, mean or median, higher = longer survival
Method: The antitumor activity of compounds was measured in mice bearing transplantable tumors. Survival or tumor size were measured and the results are expressed as the measurement made in the treated group (T) divided by the measurement made in the vehicle treated control group (C). The tumor model used in this assay is P288 Lymphocytic Leukemia (intraperitoneal) in B6D2F1 (BDF1) mice

[1] = dose: 3.1 mg/kg/injection, schedule: Q01DX Z (ip), vehicle: carboxymethylcellulose (CMC)
[2] = dose: 62.5 mg/kg/injection, schedule: Q01DX010 (ip), vehicle: saline
[3] = dose: 125.0 mg/kg/injection, schedule: Q01DX010 (ip), vehicle: saline
[4] = dose: 0.5 mg/kg/injection, schedule: Q01DX010 (ip), vehicle: saline
[5] = dose: 6.25 mg/kg/injection, schedule: Q01DX Z (ip), vehicle: carboxymethylcellulose (CMC)
[6] = dose: 12.5 mg/kg/injection, schedule: Q01DX Z (ip), vehicle: carboxymethylcellulose (CMC)
[7] = dose: 50.0 mg/kg/injection, schedule: Q01DX Z (ip), vehicle: carboxymethylcellulose (CMC)
[8] = dose: 5.0 mg/kg/injection, schedule: Q01DX010 (ip), vehicle: saline
[9] = dose: 10.0 mg/kg/injection, schedule: Q01DX010 (ip), vehicle: saline
[10] = dose: 20.0 mg/kg/injection, schedule: Q01DX010 (ip), vehicle: saline
[11] = dose: 40.0 mg/kg/injection, schedule: Q01DX010 (ip), vehicle: saline
[12] = dose: 25.0 mg/kg/injection, schedule: Q01DX Z (ip), vehicle: carboxymethylcellulose (CMC)
[13] = dose: 0.2 mg/kg/injection, schedule: Q01DX Z (ip), vehicle: water
[14] = dose: 1.6 mg/kg/injection, schedule: Q01DX Z (ip), vehicle: water
[15] = dose: 3.1 mg/kg/injection, schedule: Q01DX Z (ip), vehicle: water

Structure (SMILES): C[N+](C)(C)c1ncnc2nc[nH]c12
- T/C (dose: 0.4 mg/kg/injection, schedule: Q01DX Z (ip), vehicle: carboxymethylcellulose (CMC)): 98 % of control
- T/C (dose: 0.8 mg/kg/injection, schedule: Q01DX Z (ip), vehicle: carboxymethylcellulose (CMC)): 94 % of control
- T/C (dose: 1.6 mg/kg/injection, schedule: Q01DX Z (ip), vehicle: carboxymethylcellulose (CMC)): 98 % of control
- T/C [1]: 98 % of control
- T/C (dose: 15.0 mg/kg/injection, schedule: Q01DX010 (ip), vehicle: saline): 88 % of control and 100 % of control
- T/C (dose: 30.0 mg/kg/injection, schedule: Q01DX010 (ip), vehicle: saline): 100 % of control
- T/C (dose: 60.0 mg/kg/injection, schedule: Q01DX010 (ip), vehicle: saline): 100 % of control
- T/C (dose: 120.0 mg/kg/injection, schedule: Q01DX010 (ip), vehicle: saline): 100 % of control

Structure (SMILES): N=[N+]=CC(=O)OCC(N)C(=O)O (stereo not drawn)
- T/C (dose: 3.13 mg/kg/injection, schedule: Q01DX010 (ip), vehicle: saline): 94 % of control
- T/C (dose: 6.25 mg/kg/injection, schedule: Q01DX010 (ip), vehicle: saline): 105 % of control
- T/C (dose: 12.5 mg/kg/injection, schedule: Q01DX010 (ip), vehicle: saline): 100 % of control

Structure (SMILES): CCn1cnc2c(=S)nc[nH]c21
- T/C (dose: 15.6 mg/kg/injection, schedule: Q01DX Z (ip), vehicle: carboxymethylcellulose (CMC)): 92 % of control
- T/C (dose: 31.25 mg/kg/injection, schedule: Q01DX Z (ip), vehicle: carboxymethylcellulose (CMC)): 92 % of control
- T/C [2]: 90 % of control
- T/C (dose: 62.5 mg/kg/injection, schedule: Q01DX Z (ip), vehicle: carboxymethylcellulose (CMC)): 93 % of control
- T/C [3]: 90 % of control

Structure (SMILES): C1CN1c1nc(N2CC2)nc(N2CC2)n1
- T/C (dose: 0.13 mg/kg/injection, schedule: Q01DX010 (ip), vehicle: saline): 88 % of control
- T/C (dose: 0.25 mg/kg/injection, schedule: Q01DX010 (ip), vehicle: saline): 105 % of control and 88 % of control
- T/C [4]: 111 % of control and 95 % of control
- T/C (dose: 1.0 mg/kg/injection, schedule: Q01DX010 (ip), vehicle: saline): 94 % of control

Structure (SMILES): CCCSc1ncnc2nc[nH]c12
- T/C [5]: 113 % of control
- T/C [6]: 105 % of control
- T/C (dose: 31.3 mg/kg/injection, schedule: Q01DX010 (ip), vehicle: saline): 88 % of control
- T/C [7]: 115 % of control
- T/C [2]: 94 % of control
- T/C [3]: 88 % of control

Structure (SMILES): CC[n+]1c(-c2ccccc2)c2cc(N)ccc2c2ccc(N)cc21
- T/C (dose: 2.5 mg/kg/injection, schedule: Q01DX010 (ip), vehicle: saline): 152 % of control
- T/C [8]: 170 % of control and 228 % of control
- T/C [9]: 223 % of control and 285 % of control
- T/C [10]: 158 % of control and 185 % of control
- T/C [11]: 100 % of control

Structure (SMILES): S=P(N1CCOCC1)(N1CC1)N1CC1
- T/C [1]: 92 % of control
- T/C [5]: 119 % of control
- T/C [9]: 95 % of control
- T/C [6]: 90 % of control
- T/C [10]: 95 % of control
- T/C [12]: 86 % of control

Structure (SMILES): O=c1[nH]c(=O)n(C2CC(O)C(CO)O2)cc1Br (stereo not drawn)
- T/C (dose: 6.5 mg/kg/injection, schedule: Q01DX Z (ip), vehicle: carboxymethylcellulose (CMC)): 96 % of control
- T/C (dose: 8.0 mg/kg/injection, schedule: Q01DX Z (ip), vehicle: carboxymethylcellulose (CMC)): 95 % of control
- T/C (dose: 13.0 mg/kg/injection, schedule: Q01DX Z (ip), vehicle: carboxymethylcellulose (CMC)): 107 % of control
- T/C (dose: 26.0 mg/kg/injection, schedule: Q01DX Z (ip), vehicle: carboxymethylcellulose (CMC)): 102 % of control
- T/C (dose: 31.0 mg/kg/injection, schedule: Q01DX Z (ip), vehicle: carboxymethylcellulose (CMC)): 90 % of control

Structure (SMILES): CCCCNc1ncnc2c1cnn2C
- T/C (dose: 0.22 mg/kg/injection, schedule: Q01DX Z (ip), vehicle: carboxymethylcellulose (CMC)): 90 % of control
- T/C (dose: 0.45 mg/kg/injection, schedule: Q01DX Z (ip), vehicle: carboxymethylcellulose (CMC)): 90 % of control
- T/C (dose: 0.9 mg/kg/injection, schedule: Q01DX Z (ip), vehicle: carboxymethylcellulose (CMC)): 90 % of control

Structure (SMILES): CC[C@]1(O)C[C@H]2CN(CCc3c([nH]c4ccccc34)[C@@](C(=O)OC)(c3cc4c(cc3OC)N(C=O)[C@H]3[C@@](O)(C(=O)OC)[C@H](OC(C)=O)[C@]5(CC)C=CCN6CC[C@]43[C@@H]65)C2)C1
- T/C (dose: 0.06 mg/kg/injection, schedule: Q01DX Z (ip), vehicle: water): 102 % of control
- T/C (dose: 0.12 mg/kg/injection, schedule: Q01DX Z (ip), vehicle: water): 109 % of control
- T/C (dose: 0.25 mg/kg/injection, schedule: Q01DX Z (ip), vehicle: water): 116 % of control
- T/C (dose: 0.5 mg/kg/injection, schedule: Q01DX Z (ip), vehicle: water): 120 % of control and 101 % of control

Structure (SMILES): CS(=O)(=O)OCCN(CCOS(C)(=O)=O)c1ccc(N=O)cc1
- T/C [4]: 121 % of control
- T/C (dose: 2.0 mg/kg/injection, schedule: Q01DX010 (ip), vehicle: saline): 90 % of control and 94 % of control

Structure (SMILES): O=C(Nc1ccc(C2=NCCN2)cc1)c1ccc(C(=O)Nc2ccc(C3=NCCN3)cc2)c([N+](=O)[O-])c1
- T/C (dose: 6.0 mg/kg/injection, schedule: Q01DX010 (ip), vehicle: saline): 155 % of control and 175 % of control
- T/C (dose: 8.0 mg/kg/injection, schedule: Q01DX010 (ip), vehicle: saline): 188 % of control and 262 % of control
- T/C (dose: 12.0 mg/kg/injection, schedule: Q01DX010 (ip), vehicle: saline): 333 % of control and 375 % of control
- T/C (dose: 18.0 mg/kg/injection, schedule: Q01DX010 (ip), vehicle: saline): 187 % of control

Structure (SMILES): O=C(Nc1ccc(C2=NCCCN2)cc1)c1ccc(C(=O)Nc2ccc(C3=NCCCN3)cc2)cc1
- T/C [13]: 100 % of control
- T/C (dose: 0.4 mg/kg/injection, schedule: Q01DX Z (ip), vehicle: water): 109 % of control
- T/C (dose: 0.5 mg/kg/injection, schedule: Q01DX010 (ip), vehicle: other): 116 % of control and 120 % of control
- T/C (dose: 1.0 mg/kg/injection, schedule: Q01DX010 (ip), vehicle: other): 150 % of control
- T/C [14]: 177 % of control
- T/C (dose: 2.0 mg/kg/injection, schedule: Q01DX010 (ip), vehicle: other): 192 % of control and 216 % of control
- T/C [15]: 273 % of control
- T/C (dose: 4.0 mg/kg/injection, schedule: Q01DX010 (ip), vehicle: other): 164 % of control and 212 % of control
- T/C (dose: 8.0 mg/kg/injection, schedule: Q01DX010 (ip), vehicle: other): 91 % of control

Structure (SMILES): CC(=O)[C@H]1CC[C@H]2[C@@H]3C[C@H](C)C4=CC(=O)CC[C@]4(C)[C@H]3C(=O)C[C@]12C
- T/C (dose: 25.0 mg/kg/injection, schedule: Q01DX Z (sc), vehicle: steriod suspending solution): 100 % of control
- T/C (dose: 50.0 mg/kg/injection, schedule: Q01DX Z (sc), vehicle: steriod suspending solution): 108 % of control
- T/C (dose: 100.0 mg/kg/injection, schedule: Q01DX Z (sc), vehicle: steriod suspending solution): 114 % of control
- T/C (dose: 200.0 mg/kg/injection, schedule: Q01DX Z (sc), vehicle: steriod suspending solution): 104 % of control and 105 % of control
- T/C (dose: 400.0 mg/kg/injection, schedule: Q01DX Z (sc), vehicle: steriod suspending solution): 110 % of control
- T/C (dose: 800.0 mg/kg/injection, schedule: Q01DX Z (sc), vehicle: steriod suspending solution): 100 % of control

Structure (SMILES): CN(C)c1ccc(/C=C/c2ccnc3ccccc23)cc1
- T/C [13]: 117 % of control
- T/C (dose: 0.8 mg/kg/injection, schedule: Q01DX Z (ip), vehicle: water): 98 % of control
- T/C [14]: 92 % of control
- T/C [15]: 91 % of control
- T/C [8]: 88 % of control
- T/C [5]: 108 % of control
- T/C (dose: 6.3 mg/kg/injection, schedule: Q01DX Z (ip), vehicle: water): 87 % of control
- T/C [9]: 88 % of control and 90 % of control
- T/C [6]: 108 % of control
- T/C [10]: 88 % of control
- T/C [12]: 114 % of control
- T/C [11]: 88 % of control and 90 % of control
- T/C [7]: 111 % of control
